Assay: xn = mol fraction of the nth substance listed
Conditions: 101 kPa, Liquid, Vibrating tube method

C1CCCNCC1 [azacycloheptane] + O
mass density [kg/m3]
Conditions	283.15 K	288.15 K	293.15 K	298.15 K
x2 = 0.0199	891.47	887.05	882.62	878.18
x2 = 0.0395	892.56	888.13	883.7	879.25
x2 = 0.0821	895.27	890.84	886.39	881.94
x2 = 0.1198	897.59	893.16	888.7	884.23
x2 = 0.1594	900.05	895.61	891.15	886.67
x2 = 0.1994	902.85	898.4	893.94	889.46
x2 = 0.2498	906.32	901.88	897.41	892.92
x2 = 0.3	909.81	905.38	900.91	–
x2 = 0.3499	913.73	909.3	904.84	–
x2 = 0.4	917.67	913.25	908.79	–
x2 = 0.4529	922.26	917.86	913.42	–
x2 = 0.5008	926.61	922.24	917.83	–
x2 = 0.5041	926.61	922.23	917.82	–
x2 = 0.5508	931.05	926.72	922.34	–
x2 = 0.5992	935.7	931.42	927.09	–
x2 = 0.65	941.01	936.79	932.53	–
x2 = 0.699	946.42	942.29	938.12	–
x2 = 0.7496	952.51	948.5	944.46	–
x2 = 0.7994	959.33	955.51	951.64	–
x2 = 0.8398	965.5	961.88	958.2	–
x2 = 0.8799	972.62	969.3	965.9	–
x2 = 0.92	981.18	978.28	975.3	–
x2 = 0.9599	991.53	989.32	986.99	–
x2 = 0.96	991.6	989.39	987.06	–
x2 = 0.9699	994.44	992.49	990.4	–
x2 = 0.98	997.1	995.56	993.8	–

— the NIST ThermoML archive (doi:10.1016/j.tca.2008.12.007)
